According to patent US8889704B2 (Array BioPharma Inc., priority 2011, dated 2014):
pIC50: −log10 of the molar value. Structures can show the parent of a compound that is named as a salt.

Legend:
Assay type in all cases: biochemical
[1] = biological target: T1, GST-tagged recombinant full-length human Pim-2 (Homo sapiens, UniProt Q9P1W9); assay: PIM-2 Assay (as Example A); settings: averaged IC50; 4 μM ATP, 1.0 μM PIM2tide, 1.5 nM Pim-2
T1 construct: GST-tagged recombinant full-length human Pim-2; GST
T1 sequence (Q9P1W9 whole entry): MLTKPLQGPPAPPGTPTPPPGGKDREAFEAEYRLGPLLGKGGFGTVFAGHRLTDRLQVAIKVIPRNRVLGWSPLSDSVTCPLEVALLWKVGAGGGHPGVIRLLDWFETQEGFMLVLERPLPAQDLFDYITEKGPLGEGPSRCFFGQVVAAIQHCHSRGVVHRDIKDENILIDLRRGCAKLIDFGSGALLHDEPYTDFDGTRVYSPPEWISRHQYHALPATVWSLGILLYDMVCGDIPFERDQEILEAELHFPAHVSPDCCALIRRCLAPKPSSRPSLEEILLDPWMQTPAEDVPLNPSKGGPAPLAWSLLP
Outline: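 IC50 was derived by 4-parameter logistic fitting of percent-of-control data over a 10-point, 3-fold series (highest 10 μM, 2% DMSO). Reactions held 1.5 nM GST-Pim-2 (full-length, human), 4 μM [γ-33P]ATP and 1.0 μM PIM2tide for 60 min at 22 °C, pH 7.4; 33P-peptide captured on P81 filters.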

PIM-1 = PIM-1 (Homo sapiens, UniProt P11309); assay: Enzyme PIM-1 Assay ([33P]ATP incorporation into PIM2tide, filter plate); settings: averaged IC50; 35 μM ATP, 7.5 μM PIM2tide, 0.25 nM PIM-1, 60 min at 22° C.
Chain of PIM-1 (P11309 whole entry, species assumed): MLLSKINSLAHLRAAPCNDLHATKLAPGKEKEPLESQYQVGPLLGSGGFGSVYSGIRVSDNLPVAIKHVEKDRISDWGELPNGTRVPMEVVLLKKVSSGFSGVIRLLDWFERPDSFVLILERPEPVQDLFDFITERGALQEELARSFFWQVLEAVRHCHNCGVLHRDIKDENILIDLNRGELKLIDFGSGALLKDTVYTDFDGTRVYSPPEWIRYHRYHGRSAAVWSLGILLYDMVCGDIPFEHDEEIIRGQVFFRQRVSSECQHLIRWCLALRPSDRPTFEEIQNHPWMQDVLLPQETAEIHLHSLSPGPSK
Outline: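 Ten-point, 3-fold dilution series (10 μM top, 2% DMSO final) tested for inhibition of 33P transfer from 35 μM ATP to 7.5 μM PIM2tide by 0.25 nM PIM-1. Reaction 60 min, 22 °C, pH 7.4 MOPS/MgCl2 buffer; phosphocellulose capture, scintillation counting, IC50 where fitted POC equals 50.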

recombinant rat PIM-3 = recombinant rat PIM-3 (Rattus norvegicus, UniProt O70444); assay: PIM-3 Assay (as Example A); settings: averaged IC50; 30 μM ATP, 3.75 μM PIM2tide, 0.5 nM PIM-3
Outline: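 33P incorporation from 30 μM [γ-33P]ATP into 3.75 μM PIM2tide by 0.5 nM rat PIM-3, 60 min at 22 °C in pH 7.4 MOPS buffer, read by P81 filter capture and scintillation counting. Compounds tested in 3-fold dilutions up to 10 μM final, 2% DMSO; percent-of-control data fitted by 4-parameter logistic for IC50.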

Row | SMILES | pIC50 [1] | pIC50 (PIM-1) | pIC50 (recombinant rat PIM-3)
1 | CC1(O)CCN([C@H](c2ccc3nnc(-c4ccc5cccc(C(C)(C)C)c5n4)n3c2)C(F)(F)F)C1 (single isomer, unassigned; diastereomer 2) [Example 196, hydrochloride] | < 6.00 | 7.37 | < 7.00
2 | CN[C@H]1CCN(C(c2ccc3nnc(-c4ccc5cccc(OCC6CC6)c5n4)n3c2)C(F)(F)F)C1 (stereo partly drawn) [Example 20, (3S)-1-(1-(3-(8-(Cyclopropylmethoxy)quinolin-2-yl)-[1,2,4]triazolo[4,3-a]pyridin-6-yl)-2,2,2-trifluoroethyl)-N-methylpyrrolidin-3-amine dihydrochloride] | 6.88 | 9.46 | 8.48
3 | Cc1oc(=O)oc1COC(=O)N[C@H]1CCN([C@H](c2ccc3nnc(-c4ccc5cc(F)c(OCCO)cc5n4)n3c2)C(F)(F)F)C1 [Example 321, (5-methyl-2-oxo-1,3-dioxol-4-yl)methyl ((S)-1-((R)-2,2,2-trifluoro-1-(3-(6-fluoro-7-(2-hydroxyethoxy)quinolin-2-yl)-[1,2,4]triazolo[4,3-a]pyridin-6-yl)ethyl)pyrrolidin-3-yl)carbamate] | 5.74 | 8.77 | 8.21
4 | CC(C)(C)c1cccc2ccc(-c3nnc4ccc([C@@H](N5CC[C@](N)(CO)C5)C(F)(F)F)cn34)nc12 [Example 189, ((R)-3-amino-1-((R)-1-(3-(8-tert-butylquinolin-2-yl)-[1,2,4]triazolo[4,3-a]pyridin-6-yl)-2,2,2-trifluoroethyl)pyrrolidin-3-yl)methanol dihydrochloride] | 7.07 | 9.24 | 8.82
5 | COCC(C)(C)Oc1cccc2ccc(-c3nnc4ccc([C@@H](N5CC[C@H](N)C5)C(F)(F)F)cn34)nc12 [Example 263, (S)-1-((R)-2,2,2-trifluoro-1-(3-(8-(1-methoxy-2-methylpropan-2-yloxy)quinolin-2-yl)-[1,2,4]triazolo[4,3-a]pyridin-6-yl)ethyl)pyrrolidin-3-amine formate] | 6.34 | 9.18 | 8.52
6 | Cn1cc(-c2ccc3ccc(-c4nnc5ccc([C@H](N6CC[C@](C)(N)C6)C(F)(F)F)cn45)nc3c2)cn1 [Example 222, (S)-3-methyl-1-((S)-2,2,2-trifluoro-1-(3-(7-(1-methyl-1H-pyrazol-4-yl)quinolin-2-yl)-[1,2,4]triazolo[4,3-a]pyridin-6-yl)ethyl)pyrrolidin-3-amine dihydrochloride] | 7.11 | 9.66 | 9.70
7 | CO[C@H](C)COc1ccc2ccc(-c3nnc4ccc([C@H](N5CC[C@](C)(N)C5)C(F)(F)F)cn34)nc2c1 [Example 305, (S)-3-methyl-1-((S)-2,2,2-trifluoro-1-(3-(7-((R)-2-methoxypropoxy)quinolin-2-yl)-[1,2,4]triazolo[4,3-a]pyridin-6-yl)ethyl)pyrrolidin-3-amine] | 7.15 | 9.02 | 9.40
8 | CC(C)Oc1cccc2ccc(-c3nnc4ccc([C@@H](N5CC[C@H](NCCF)C5)C(F)(F)F)cn34)nc12 [Example 81, (S)—N-(2-fluoroethyl)-1-((R)-2,2,2-trifluoro-1-(3-(8-isopropoxyquinolin-2-yl)-[1,2,4]triazolo[4,3-a]pyridin-6-yl)ethyl)pyrrolidin-3-amine dihydrochloride] | < 7.00 | 9.43 | 8.55
9 | COCCOc1ccc2ccc(-c3nnc4ccc([C@@H](N5CC[C@H](N)C5)C(F)(F)F)cn34)nc2c1F [Example 179, (S)-1-((R)-2,2,2-trifluoro-1-(3-(8-fluoro-7-(2-methoxyethoxy)quinolin-2-yl)-[1,2,4]triazolo[4,3-a]pyridin-6-yl)ethyl)pyrrolidin-3-amine dihydrochloride] | < 7.00 | 8.61 | 8.39
10 | N[C@H]1CCN([C@H](c2ccc3nnc(-c4ccc5cccc(C(F)(F)F)c5n4)n3c2)C(F)(F)F)C1 [Example 161, (S)-1-((R)-2,2,2-trifluoro-1-(3-(8-(trifluoromethyl)quinolin-2-yl)-[1,2,4]triazolo[4,3-a]pyridin-6-yl)ethyl)pyrrolidin-3-amine dihydrochloride] | < 7.00 | 9.64 | 8.72
11 | CO[C@@H](C)COc1ccc2ccc(-c3nnc4ccc([C@H](N5CC[C@](C)(N)C5)C(F)(F)F)cn34)nc2c1 [Example 304, (S)-3-methyl-1-((S)-2,2,2-trifluoro-1-(3-(7-((S)-2-methoxypropoxy)quinolin-2-yl)-[1,2,4]triazolo[4,3-a]pyridin-6-yl)ethyl)pyrrolidin-3-amine] | 7.19 | 9.59 | 9.52
12 | CC(C)(C)c1cccc2ccc(-c3nnc4ccc([C@@H](N5C[C@@H](N)[C@@H](O)C5)C(F)(F)F)cn34)nc12 [Example 130, (3S,4R)-4-amino-1-((R)-1-(3-(8-tert-butylquinolin-2-yl)-[1,2,4]triazolo[4,3-a]pyridin-6-yl)-2,2,2-trifluoroethyl)pyrrolidin-3-ol dihydrochloride] | 6.12 | 8.04 | 7.55
13 | CC(C)(C)C(=O)OCCOc1cc2nc(-c3nnc4ccc([C@@H](N5CC[C@H](N)C5)C(F)(F)F)cn34)ccc2cc1F [Example 286, 2-(2-(6-((R)-1-((S)-3-aminopyrrolidin-1-yl)-2,2,2-trifluoroethyl)-[1,2,4]triazolo[4,3-a]pyridin-3-yl)-6-fluoroquinolin-7-yloxy)ethyl pivalate] | < 6.00 | 8.86 | 7.48
14 | CC(C)Oc1cccc2ccc(-c3nnc4ccc([C@@H](N5CC[C@H](N)C5)C(F)(F)F)cn34)nc12 [Example 31, (S)-1-((R)-2,2,2-trifluoro-1-(3-(8-isopropoxyquinolin-2-yl)-[1,2,4]triazolo[4,3-a]pyridin-6-yl)ethyl)pyrrolidin-3-amine dihydrochloride] | 7.64 | 10.10 | 9.40
15 | CCC1(N)CCN([C@H](c2ccc3nnc(-c4ccc5cccc(OC)c5n4)n3c2)C(F)(F)F)C1 (single isomer, unassigned; diastereomer 1) [Example 242, dihydrochloride] | < 6.00 | 8.38 | 7.68
16 | N[C@@H]1CCN([C@H](c2ccc3nnc(-c4ccc5ccc(C6CC6)cc5n4)n3c2)C(F)(F)F)C1 [Example 61, (R)-1-((R)-1-(3-(7-cyclopropylquinolin-2-yl)-[1,2,4]triazolo[4,3-a]pyridin-6-yl)-2,2,2-trifluoroethyl)pyrrolidin-3-amine dihydrochloride] | < 7.00 | 9.23 | 8.43
17 | Cc1c(C(=O)NC(C)C)ccc2ccc(-c3nnc4ccc([C@@H](N5CC[C@H](N)C5)C(F)(F)F)cn34)nc12 [Example 209, 2-(6-((R)-1-((S)-3-aminopyrrolidin-1-yl)-2,2,2-trifluoroethyl)-[1,2,4]triazolo[4,3-a]pyridin-3-yl)-N-isopropyl-8-methylquinoline-7-carboxamide] | 6.75 | 9.26 | 9.22
